From patent US8883782B2, “Spiro-tetracyclic ring compounds as beta-secretase modulators and methods of use” (Amgen Inc., priority 2010, dated 2014)
Read-outs that look alike come from different tables or passages of the source.

Columns and labels:
[1] = target: Beta Secretase enzyme (BACE) (Homo sapiens, UniProt P56817); experiment: In vitro enzymatic BACE FRET (fluorescence resonance energy transfer) assay; assay type: biochemical
Procedure, shortened: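 Enzyme activity was measured at pH 4.2 (0.05 M acetate, 10% DMSO final, 100 uM genapol) by cleavage of a 50 nM quenched fluorogenic peptide. After one hour, Tris was added to neutralise the pH and fluorescence was recorded.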

[2] = test system: Aβ40 in conditioned medium of cells stably expressing Amyloid Precursor Protein (APP); experiment: In vitro BACE cell-based assay (Aβ40 in conditioned medium, sandwich ELISA); conditions: Homo sapiens
Procedure, shortened: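 Quantification relied on pAb40/6E10 sandwich ELISA with Europium fluorescence counts, and IC50 was fitted versus concentration.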

[3] = average IC50, enzyme assay, read-out: BACE 1 FRET assay
[4] = HEK293, average IC50, read-out: HEK cell assay
[5] = HEK293, average IC50, HEK cells, read-out: HEK cell assay

Beta Secretase enzyme (BACE), sequence (P56817 46-501, species assumed): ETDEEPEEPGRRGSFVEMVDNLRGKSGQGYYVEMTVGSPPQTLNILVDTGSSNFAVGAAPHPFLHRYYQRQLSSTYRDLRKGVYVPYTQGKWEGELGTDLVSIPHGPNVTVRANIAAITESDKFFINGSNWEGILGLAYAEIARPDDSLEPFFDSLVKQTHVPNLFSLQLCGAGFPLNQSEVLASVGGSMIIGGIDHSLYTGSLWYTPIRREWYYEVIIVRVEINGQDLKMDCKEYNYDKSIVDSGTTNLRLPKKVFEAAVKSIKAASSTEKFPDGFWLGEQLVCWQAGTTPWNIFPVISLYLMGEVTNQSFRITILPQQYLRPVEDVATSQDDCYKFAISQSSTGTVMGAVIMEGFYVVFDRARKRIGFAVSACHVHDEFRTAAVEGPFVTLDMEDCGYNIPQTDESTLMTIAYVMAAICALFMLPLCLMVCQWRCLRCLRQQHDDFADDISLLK

SMILES	IC50 [1, 3]	IC50 [2, 4]	IC50 [2, 5]	further results
CC1(C)C[C@H](c2cc3c(cn2)Oc2ccc(-c4cccnc4)cc2[C@@]32COC(N)=N2)CCO1 [Example 368, (5S)-3-((4R)-2,2-dimethyltetrahydro-2H-pyran-4-yl)-7-(3-pyridinyl)spiro[chromeno[2,3-c]pyridine-5,4′-[1,3]oxazol]-2′-amine]	0.0104 µM	0.0379 µM	–	–
CC1(C)C[C@H](c2cc3c(cn2)Oc2ccc(-c4cccnc4F)cc2[C@@]32COC(N)=N2)CCO1 [Example 377, (5S)-3-((4R)-2,2-dimethyltetrahydro-2H-pyran-4-yl)-7-(2-fluoro-3-pyridinyl)spiro[chromeno[2,3-c]pyridine-5,4′-[1,3]oxazol]-2′-amine]	0.0059 µM	0.0294 µM	–	–
CC1(C)C[C@@H](c2cc3c(cn2)Oc2ccc(-c4ccc(F)nc4)cc2[C@@]32COC(N)=N2)CCO1 [Example 379, (5S)-3-((4S)-2,2-dimethyltetrahydro-2H-pyran-4-yl)-7-(6-fluoro-3-pyridinyl)spiro[chromeno[2,3-c]pyridine-5,4′-[1,3]oxazol]-2′-amine]	0.0232 µM	0.176 µM	–	–
CC1(C)C[C@@H](c2cc3c(cn2)Oc2ccc(-c4cncc(F)c4)cc2[C@@]32COC(N)=N2)CCO1 [Example 380, (5S)-3-((4S)-2,2-dimethyltetrahydro-2H-pyran-4-yl)-7-(5-fluoro-3-pyridinyl)spiro[chromeno[2,3-c]pyridine-5,4′-[1,3]oxazol]-2′-amine]	0.0302 µM	0.101 µM	–	–
NC1=N[C@@]2(CO1)c1cc(-c3cncc(F)c3)ccc1Oc1cnc([C@@H]3CCCCO3)cc12 [Example 381, (5S)-7-(5-fluoro-3-pyridinyl)-3-((2S)-tetrahydro-2H-pyran-2-yl)spiro[chromeno[2,3-c]pyridine-5,4′-[1,3]oxazol]-2′-amine]	0.0073 µM	0.0626 µM	–	–
NC1=N[C@@]2(CO1)c1cc(-c3cccnc3F)ccc1Oc1cnc([C@@H]3CCCOC3)cc12 [Example 382, (5S)-7-(2-fluoro-3-pyridinyl)-3-((3S)-tetrahydro-2H-pyran-3-yl)spiro[chromeno[2,3-c]pyridine-5,4′-[1,3]oxazol]-2′-amine]	–	–	–	IC50 ([1]; BACE 1 FRET assay (uM), average IC50, enzyme assay): 0.0113 µM; IC50 ([2]; HEK293, read-out: HEK cell assay (uM)): 0.123 µM
CC(C)(C)/C=C/c1ccc2c(c1)[C@]1(COC(N)=N1)c1cc(Cl)ncc1O2 [Example 383, (5R)-3-chloro-7-((1E)-3,3-dimethyl-1-buten-1-yl)spiro[chromeno[2,3-c]pyridine-5,4′-[1,3]oxazol]-2′-amine]	0.622 µM	–	2.56 µM	–
N#Cc1ncccc1-c1ccc2c(c1)[C@@]1(COC(N)=N1)c1cc(Cl)ncc1O2 [Example 387, 3-((5S)-2′-amino-3-chlorospiro[chromeno[2,3-c]pyridine-5,4′-[1,3]oxazol]-7-yl)-2-pyridinecarbonitrile]	0.672 µM	–	10 µM	–
N#Cc1ncccc1-c1ccc2c(c1)[C@@]1(COC(N)=N1)c1cc(C3=CCOCC3)ncc1O2 [Example 389, 3-((5S)-2′-amino-3-(3,6-dihydro-2H-pyran-4-yl)spiro[chromeno[2,3-c]pyridine-5,4′-[1,3]oxazol]-7-yl)-2-pyridinecarbonitrile]	0.0111 µM	–	0.0684 µM	–
NC1=N[C@@]2(CO1)c1cc(-c3cnccc3F)ccc1Oc1cnc(Cl)cc12 [Example 390, (5S)-3-chloro-7-(4-fluoro-3-pyridinyl)spiro[chromeno[2,3-c]pyridine-5,4′-[1,3]oxazol]-2′-amine]	0.102 µM	–	0.64 µM	–
NC1=N[C@@]2(CO1)c1cc(-c3cnccc3F)ccc1Oc1cnc(C3=CCOCC3)cc12 [Example 391, (5S)-3-(3,6-dihydro-2H-pyran-4-yl)-7-(4-fluoro-3-pyridinyl)spiro[chromeno[2,3-c]pyridine-5,4′-[1,3]oxazol]-2′-amine]	–	–	–	IC50 ([1]; BACE 1 FRET assay (uM)): 0.0007 µM; IC50 ([2]; HEK293, read-out: HEK cell assay (uM), average IC50, HEK cells): 0.0058 µM
NC1=N[C@]2(CO1)c1cc(-c3ccnc(F)c3)ccc1Oc1cnc(Cl)cc12 [Example 392, (5R)-3-chloro-7-(2-fluoro-4-pyridinyl)spiro[chromeno[2,3-c]pyridine-5,4′-[1,3]oxazol]-2′-amine]	5.54 µM	–	10 µM	–
NC1=N[C@]2(CO1)c1cc(-c3ccnc(F)c3)ccc1Oc1cnc(-c3cncnc3)cc12 [Example 393, (5R)-7-(2-fluoro-4-pyridinyl)-3-(5-pyrimidinyl)spiro[chromeno[2,3-c]pyridine-5,4′-[1,3]oxazol]-2′-amine]	0.0633 µM	–	0.224 µM	–
NC1=N[C@@]2(CO1)c1cc(-c3ccc(F)cc3)ccc1Oc1cnc(C3=CCOCC3)cc12 [Example 394, (5S)-3-(3,6-dihydro-2H-pyran-4-yl)-7-(4-fluorophenyl)spiro[chromeno[2,3-c]pyridine-5,4′-[1,3]oxazol]-2′-amine]	0.0094 µM	–	0.138 µM	–
NC1=N[C@@]2(CO1)c1cc(-c3ccc(F)cc3)ccc1Oc1cnc(-c3ccnc(F)c3)cc12 [Example 395, (5S)-7-(4-fluorophenyl)-3-(2-fluoro-4-pyridinyl)spiro[chromeno[2,3-c]pyridine-5,4′-[1,3]oxazol]-2′-amine]	0.0237 µM	–	0.335 µM	–
NC1=N[C@@]2(CO1)c1cc(-c3ccc(F)cc3)ccc1Oc1cnc(-c3cncnc3)cc12 [Example 396, (5S)-7-(4-fluorophenyl)-3-(5-pyrimidinyl)spiro[chromeno[2,3-c]pyridine-5,4′-[1,3]oxazol]-2′-amine]	0.136 µM	–	1.08 µM	–
CN(C)c1cc2c(cn1)Oc1ccc(-c3cccnc3)cc1[C@@]21COC(N)=N1 [Example 403, (5S)-N~3~,N~3~-dimethyl-7-(3-pyridinyl)spiro[chromeno[2,3-c]pyridine-5,4′-[1,3]oxazole]-2′,3-diamine]	0.043 µM	–	0.111 µM	–
NC1=N[C@@]2(CO1)c1cc(-c3cccnc3)ccc1Oc1cnc(NCC(F)(F)F)cc12 [Example 404, (5S)-7-(3-pyridinyl)-N~3~-(2,2,2-trifluoroethyl)spiro[chromeno[2,3-c]pyridine-5,4′-[1,3]oxazole]-2′,3-diamine]	0.0313 µM	–	0.163 µM	–

The remaining molecules from weak to strong by IC50 [1, 3], led by results:

IC50 [1, 3]	IC50 [2, 4]	IC50 [2, 5]	SMILES	further results
0.0044 µM	–	0.0449 µM	NC1=N[C@@]2(CO1)c1cc(-c3cccnc3F)ccc1Oc1cnc(/C=C/C3CC3)cc12 [Example 401, (5S)-3-((E)-2-cyclopropylethenyl)-7-(2-fluoro-3-pyridinyl)spiro[chromeno[2,3-c]pyridine-5,4′-[1,3]oxazol]-2′-amine]	–
0.0043 µM	0.0264 µM	–	CC1(C)C[C@@H](c2cc3c(cn2)Oc2ccc(-c4cccnc4F)cc2[C@@]32COC(N)=N2)CCO1 [Example 378, (5S)-3-((4S)-2,2-dimethyltetrahydro-2H-pyran-4-yl)-7-(2-fluoro-3-pyridinyl)spiro[chromeno[2,3-c]pyridine-5,4′-[1,3]oxazol]-2′-amine]	–
0.004 µM	–	0.084 µM	CC(C)(C)/C=C/c1ccc2c(c1)[C@]1(COC(N)=N1)c1cc(-c3cncnc3)ncc1O2 [Example 384, (5R)-7-((1E)-3,3-dimethyl-1-buten-1-yl)-3-(5-pyrimidinyl)spiro[chromeno[2,3-c]pyridine-5,4′-[1,3]oxazol]-2′-amine]	–
0.0036 µM	0.0237 µM	–	CC1(C)CC(c2cc3c(cn2)Oc2ccc(-c4ccc(F)nc4)cc2[C@@]32COC(N)=N2)=CCO1 [Example 370, (5S)-3-(2,2-dimethyl-3,6-dihydro-2H-pyran-4-yl)-7-(6-fluoro-3-pyridinyl)spiro[chromeno[2,3-c]pyridine-5,4′-[1,3]oxazol]-2′-amine]	–
0.0029 µM	–	0.107 µM	NC1=N[C@@]2(CO1)c1cc(-c3cccnc3F)ccc1Oc1cnc(C3CCCCC3)cc12 [Example 388, (5S)-3-cyclohexyl-7-(2-fluoro-3-pyridinyl)spiro[chromeno[2,3-c]pyridine-5,4′-[1,3]oxazol]-2′-amine]	–
0.0026 µM	0.033 µM	–	NC1=N[C@@]2(CO1)c1cc(-c3cncc(F)c3)ccc1Oc1cnc(-c3ccnc(F)c3)cc12 [Example 376, (5S)-3-(2-fluoro-4-pyridinyl)-7-(5-fluoro-3-pyridinyl)spiro[chromeno[2,3-c]pyridine-5,4′-[1,3]oxazol]-2′-amine]	–
0.0022 µM	0.0228 µM	–	NC1=N[C@@]2(CO1)c1cc(-c3cncc(F)c3)ccc1Oc1cnc(-c3cncc(F)c3)cc12 [Example 373, (5S)-3,7-bis(5-fluoro-3-pyridinyl)spiro[chromeno[2,3-c]pyridine-5,4′-[1,3]oxazol]-2′-amine]	–
0.002 µM	0.0107 µM	–	CC1(C)CC(c2cc3c(cn2)Oc2ccc(-c4cncc(F)c4)cc2[C@@]32COC(N)=N2)=CCO1 [Example 371, (5S)-3-(2,2-dimethyl-3,6-dihydro-2H-pyran-4-yl)-7-(5-fluoro-3-pyridinyl)spiro[chromeno[2,3-c]pyridine-5,4′-[1,3]oxazol]-2′-amine]	–
0.0008 µM	0.0149 µM	–	CC(C)(C)/C=C/c1cc2c(cn1)Oc1ccc(-c3cncc(F)c3)cc1[C@@]21COC(N)=N1 [Example 372, (5S)-3-((1E)-3,3-dimethyl-1-buten-1-yl)-7-(5-fluoro-3-pyridinyl)spiro[chromeno[2,3-c]pyridine-5,4′-[1,3]oxazol]-2′-amine]	–
0.0004 µM	–	0.0111 µM	NC1=N[C@@]2(CO1)c1cc(-c3cccnc3F)ccc1Oc1cnc(C3=CCCCC3)cc12 [Example 386, (5S)-3-(1-cyclohexen-1-yl)-7-(2-fluoro-3-pyridinyl)spiro[chromeno[2,3-c]pyridine-5,4′-[1,3]oxazol]-2′-amine]	–
